Source: patent publication US10913750B2, “Tubulin-binding compounds, compositions and uses related thereto” (The Regents of the University of California, priority 2015, dated 2021)

Assays:
[1] = system: β-tubulin; test: Crystal structure of T2R-TTL tubulin complex soaked with ligand; format: binding, bovine; details: T2R-TTL crystal soaked 24 hours with 1 mM compound
Procedure: The crystal structure of tubulin bound to two ligands described here was obtained using an established system for tubulin crystal growth. […] Methods in Cell Biology 2010, 95:373-390.) Briefly, bovine αβ-tubulin, human RB3 or rat STMN4 stathmin-like domain, and chicken tubulin tyrosine ligase (TTL) reconstitute to form a stathmin-bound αβ-tubulin (T2R) T2R-TTL complex, which readily crystallizes. […]
The final resolution cutoffs described here were determined optimally from a subset of diffraction images that took into consideration the signal-to-noise ratio for reflection intensities and the random half-data set correlation coefficient, CC1/2 (Karplus P. A., Diederichs K. Linking crystallographic model and data quality. Science 2012, (New York, N.Y.) 336:1030-1033.) […]

[2] = system: HeLa cells; test: Microtubule stability by immunofluorescence microscopy; format: cell-based; details: increasing concentrations, anti-α-tubulin staining
Procedure: Next, microtubule stability was analyzed in HeLa cells treated with increasing concentrations of each of these three compounds by fixing the cells with 4% paraformaldehyde, staining them with Hoechst 33342 (DNA dye) to visualize their DNA and anti-α-tubulin antibodies to visualize microtubule structures and then imaging them by immunofluorescence microscopy.

[3] = system: HeLa cells; test: CellTiter-Glo cell viability, HeLa cells; format: cell-based; details: Homo sapiens; HeLa cells, 72 hours, CellTiter-Glo
Procedure: (§1) The cell viability IC50 of each compound was determined using Promega CellTiter-Glo Luminescent Cell Viability Assay kit by measuring the total ATP levels to quantify the number of metabolically active cells upon drug treatment as described in Crouch et al., J Immunol Methods 1993, 160, (1), 81-8. Briefly, the compounds were suspended in DMSO at 10 mM and diluted in 384 plates (20 μl/well in DMSO) in triplicate by a 14-point titration (12 nM to 100 μM). 50 μl of HeLa cells or patient derived glioblastoma cells (HK-309) (2000 cells/well) were then treated with the prepared dilutions of the drugs (0.5 μl) and incubated at 37° C. and 5% CO2. 72 hours later 50 μl of CellTiter-Glo reagent was added to each well followed by a 2 minutes shaking and a 10-minute incubation to lyse the cells. The relative luminescent intensity units (RLU) of each well was measured using a Tecan M1000 microplate reader (Tecan Group Ltd.) with its green filter and 1 second integration time.
(§2) Cells used in Example 2 and other examples disclosed herein were cultured as follows: Adherent HeLa cells and patient derived glioblastoma cells were grown with 5% CO2 at 37° C. in F12:DMEM 50:50 medium (Invitrogen) containing 10% FBS and 1% penicillin/streptomycin. To obtain HeLa cells synchronized in mitosis, cycling cells were treated with 2 mM thymidine (Sigma-Aldrich) for eighteen hours, washed three times with PBS, and released into fresh media until they entered mitosis eight hours post-release. Patient-derived glioblastoma cells (HK-309) were collected and grown with approval from the UCLA Institutional Review Board. HK-309 was derived from a recurrent glioblastoma taken from a person. The cells were initially propagated as cancer stem cell-containing spheres in serum-free medium containing basic fibroblast growth factor and epidermal growth factor (Preprotech) as described previously by Visnyei et al., Mol Cancer Ther 2011, 10, (10), 1818-28.
For mitotic arrest IC50s, cells were treated with a twenty-point-2-fold-titration (190 pM to 10 μM) of each compound tested for 20 hours. For cell viability IC50s, cells were treated with a fourteen-point-2-fold-titration (12.2 nM to 100 μM). Mitotic arrest IC50 was determined by measuring the percent G2/M arrest using the Vybrant DyeCycle Green (Invitrogen) assay described above. Cell viability IC50 was determined using the CellTiter-Glo Assay (Promega), which measures total ATP levels. Plates were read with a Tecan M1000 micro-plate reader at 540 nm. The CDD software was used for generating IC50 and IC90 values.

[4] = system: HeLa cells; test: Cell cycle analysis / cell division; format: cell-based; details: 20 hours
Procedure: For cell cycle analysis, HeLa cells were plated in 384 well plates (1500 cells/well) and treated with 10 μM drugs for 20 hours. Cells were then fixed and stained with 5 μM Vybrant DyeCycle Green (Invitrogen) for 1 hour at 37° C. and plates were scanned with an Acumen eX3 (TTP Labtech) fluorescence microplate cytometer using its 488 nm laser and a cell cycle histogram profile was generated for each drug treatment using the CDD (Collaborative Drug Discovery) software. […] Additionally, HeLa cells were treated with increasing concentrations of colchicine and compound 10 for 20 hours and the drug response dose curves were used to measure the mitotic arrest IC50 for each treatment.
Briefly, HeLa cells were treated with increasing concentrations of 10, 10a, and 10b for 20 hours and the drug response dose curves were used to measure the mitotic arrest IC50 for each treatment. Also, the percentage of cells undergoing normal cell division was quantified for DMSO, colchicine, 10b, or taxol-treated cells. Data represent the average±SD of 3 independent experiments, with 20 cells counted for each. Asterisks denotes p-value<0.0001.

[5] = target: T1, tubulin (Sus scrofa, UniProt P02554); test: In vitro tubulin polymerization assay (HTS-tubulin polymerization kit, Cytoskeleton); format: biochemical; details: 3 μM compound, fluorescence, 70 minutes at 37° C.
T1 construct: purchased Cytoskeleton Inc. BK011P
Procedure: 1.5 ul of 10× strength compound, 20 μl of tubulin solution and Triton X-100 at a final concentration of 0.01% were added to each well in a 384 well plate. The reactions were assembled on ice to prevent tubulin pre-polymerization. For kinetic measurements, microtubule polymerization was monitored by reading the fluorescence at 420 nm (due to the incorporation of a fluorescent reporter into microtubules as polymerization occurs) every ten seconds using a Tecan M1000 microplate reader (FIG. 6B). […] Fluorescence increased as polymerization occurred, due to the incorporation of 4′,6-diamidino-2-phenylindole. Fluorescence was monitored every minute for 70 minutes at 37° C.
Tubulin polymerization reactions were carried out according to the manufacturer (Cytoskeleton, BK011P) in the presence of 3 μM colchicine, MI-181, taxol or DMSO. Polymerization was monitored with a Tecan M1000 micro-plate reader at 420 nm for 70 minutes at 37° C. The results are depicted in FIG. 11.

[6] = system: patient-derived glioblastoma cells (HK-309); test: CellTiter-Glo cell viability, patient-derived glioblastoma cells; format: cell-based; details: HK-309, 72 hours
Procedure: as §1, §2

T1 sequence (P02554 whole entry): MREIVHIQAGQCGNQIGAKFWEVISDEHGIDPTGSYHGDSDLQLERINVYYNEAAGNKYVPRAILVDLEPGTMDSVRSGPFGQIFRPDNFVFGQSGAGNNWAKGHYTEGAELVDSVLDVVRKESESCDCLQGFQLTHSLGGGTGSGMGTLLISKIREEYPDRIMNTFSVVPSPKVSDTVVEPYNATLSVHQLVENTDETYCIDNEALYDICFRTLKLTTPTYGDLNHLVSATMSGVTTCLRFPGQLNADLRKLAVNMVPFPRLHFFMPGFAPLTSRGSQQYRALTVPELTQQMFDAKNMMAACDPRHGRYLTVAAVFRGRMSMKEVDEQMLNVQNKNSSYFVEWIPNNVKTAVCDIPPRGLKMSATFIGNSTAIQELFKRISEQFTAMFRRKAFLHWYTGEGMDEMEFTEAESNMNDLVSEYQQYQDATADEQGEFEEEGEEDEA
T1 sequence (P02550 whole entry partner): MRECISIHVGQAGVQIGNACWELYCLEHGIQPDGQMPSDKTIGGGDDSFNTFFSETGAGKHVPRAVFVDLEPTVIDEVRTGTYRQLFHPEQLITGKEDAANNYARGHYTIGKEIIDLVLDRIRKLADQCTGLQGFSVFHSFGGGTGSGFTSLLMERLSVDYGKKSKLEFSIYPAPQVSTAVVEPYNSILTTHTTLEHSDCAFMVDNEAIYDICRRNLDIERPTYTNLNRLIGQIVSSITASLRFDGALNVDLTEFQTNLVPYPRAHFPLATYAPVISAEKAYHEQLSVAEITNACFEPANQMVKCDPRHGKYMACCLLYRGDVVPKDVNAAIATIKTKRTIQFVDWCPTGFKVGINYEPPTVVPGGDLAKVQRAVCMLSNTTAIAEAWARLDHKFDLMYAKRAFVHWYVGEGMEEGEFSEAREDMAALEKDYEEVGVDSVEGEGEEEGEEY

Row | Structure (SMILES) | binding to tubulin in crystal structure [1] | microtubule stability in treated cells [2] | IC50 [3] [µM] | effect on cell division and cell death [4] | inhibition of microtubule (tubulin) polymerization in vitro [5] | IC50 [6] [µM]
1 | CCOc1ccc(C2=Nn3c(nnc3-c3ccccc3OC)SC2)cc1 [Compound C2, reference compound] | bound to β-tubulin |  |  |  |  | 
2 | O=c1[nH]c(/C=C/c2ccccc2)nc2sc3c(c12)CCCC3 [Compound 10, (E)-2-styryl-5,6,7,8-tetrahydrobenzo[4,5]thieno[2,3-d]pyrimidin-4(3H)-one] |  | destabilized in a drug dose-dependent manner | 0.552 | inhibit cell division and trigger apoptotic cell death | potent inhibitors of microtubule polymerization similar to colchicine | 0.352
